Measured values from patent publication US9833430B2, “Neurodegenerative disorders and methods of treatment and diagnosis thereof” (The University of Queensland, priority 2013, dated 2017).
Entries after “also recorded” stand apart in the source; their conditions may differ.

Legend:
Assay type in all cases: in vivo
[1] = system: hSOD1^G93A mice; assay: Rotarod test, onset of balance loss
Text: (§1) Immediately after weaning, mice were placed on either a standard diet (SF11-027, Specialty Feeds, WA, AUS) or a matched diet (SF11-028, Specialty Feeds) in which 35% of the calories were from triheptanoin oil (Sasol, Germany). All diets were matched in protein, mineral, antioxidant and vitamin content relative to their caloric densities (Thomas et al., 2012). Triheptanoin replaced sucrose, some of the complex carbohydrates and long chain fats in the diet.
(§2) Animals underwent behavioral testing approximately 3-4 hours into the light cycle. All behavioral testing was conducted in an environment with minimal stimuli so as to minimize any possible effects caused by changes in external stimuli. Animals were weighed before every test session. Mice were observed, and disease progression tracked and graded according to a neurological score sheet to ensure that any non-ALS related deaths were excluded from the study. The neurological score was adapted from criteria developed at the ALS therapy development institute (Gill et al., 2009). In accordance with ethical requirements, hSOD1^G93A mice that became too weak to reach the food hoppers were provided with wet chow on the floor of the cages. […]
The rotarod tests were conducted with 10 repeats once a week using a rotarod designed for mice (Ugo Basile, Italy). […] The time at which the animal fell off was recorded. […]

[2] = system: hSOD1^G93A mice; assay: Body weight and onset of body weight loss in hSOD1^G93A mice
Text: as §1
as §2, with “cages. The endpoint of the study was defined as the mouse being unable to right itself within 15 seconds after being placed on its back.” for “cages.”

[3] = system: hSOD1^G93A mice; assay: Survival, days taken to reach end-stage
Text: as §1
as §2, with “cages. The endpoint of the study was defined as the mouse being unable to right itself within 15 seconds after being placed on its back.” for “cages.”

[4] = system: hSOD1^G93A mice; assay: Hind limb grip strength test in hSOD1^G93A mice on triheptanoin diet
Protocol: (§3) All experiments were approved by the University of Queensland's Animal Ethics Committee and followed the guidelines of the Queensland Animal Care and Protection Act 2001. All efforts were made to minimize the suffering and the number of animals used. Wild-type and hSOD1^G93A mice (B6.Cg-Tg(SOD1*G93A)1 Gur/J, stock no. 004435, Jackson laboratory, Maine, USA), were generated by mating hSOD1^G93A males with C57B/L6 wild-type females (University of Queensland). Mice were housed in a 12 hour light, 12 hour dark cycle, and had free access to food and water. Experimenters were blinded to animal genotype (until the mice started expressing the ALS phenotype) and dietary interventions.
as §1
as §2, with “cages. The endpoint of the study was defined as the mouse being unable to right itself within 15 seconds after being placed on its back. Upon reaching end-stage or 25 weeks of age, transgenic mice and their respective wild-type littermates were euthanized with an overdose of pentobarbital (120 mg/kg, i.p., Provet, Australia). Tissues, including the m. gastrocnemius and tail, were collected for subsequent analysis.” for “cages.”
(§4) Hind limb grip strength tests were conducted twice a week using a T-bar force transducer (Ugo Basile, Italy). […] The reading on the force transducer was taken only if both hind limbs released the bar at the same time. The average of 10 trials per mouse was recorded each training session. To compare time points of grip strength loss, the time point where a loss of more than 30% of the combined mean grip strength of week 9 to 13 was recorded, if the subsequent 3 measurements were ≦70% of the original average strength.

[5] = system: wild-type mice; assay: Hind limb grip strength test in wild-type mice on triheptanoin diet; details: triheptanoin n=15 vs control n=12
Protocol: as §3, with “interventions. […]” for “interventions.”
as §4

[6] = system: hSOD1^G93A mice; assay: Motor neuron counting (stereological, L2 to L5); details: hSOD1^G93A mice at 70 days
Protocol: Mice were fed with control or triheptanoin diet from 35 days until 70 days of age, when mice were anesthetized with pentobarbital (100 mg/kg i.p.), perfused with 0.9% saline followed by 4% paraformaldehyde. Spinal cords were removed and further fixed in 4% paraformaldehyde and subsequently embedded in OCT compound and serial sections of 16 μm were cut from lumbar vertebrae. Sections were washed in cold PBS and stained with 0.1% thionin in acetate buffer (pH3.4). The motor neurons were counted using stereological method as previously described (Banks et al., 2001; 2003; Forgarty et al., 2013). Briefly, motor neurons in the lateral motor column (LMC) from one side of the spinal cord were counted and only neurons that are large in size with darkly stained cytoplasm, pale nucleus and darkly stained nucleoli were counted (Clarke and Oppenheim, 1995). Every 10th section from lumbar 2 to lumbar 5 regions was counted to get the total motor neuron count which was then divided by the number of sections counted and multiplied by the total number of sections containing the LMC.

[7] = system: Pdha1, Ogdh, Sdha and Mut mRNA in gastrocnemius muscle of hSOD1^G93A mice; assay: Quantitative real time PCR of metabolic genes in gastrocnemius muscle; details: 10 week old hSOD1^G93A mice, triheptanoin feeding
Text: After euthanasia, the gastrocnemius muscle was quickly removed and frozen in liquid nitrogen. To extract RNA, muscle samples were pulverized in liquid nitrogen with a cold mortar and pestle, dissolved with TRI reagent (Life Technologies, CA, USA) and extracted according to the manufacturer's instructions. Contaminating DNA was removed by DNase I treatment and cDNA was synthesized using the Tetro cDNA synthesis kit (Bioline, London, UK) according to the manufacturer's instructions.
Expression of several metabolic genes was assayed (Gapdh, Pdha1, Ogdh, Sdha, Pcx, Gpt1, Gpt2, Pcca, Pccb and Mut) by quantitative real time PCR. All primers pairs (Table 1) were evaluated for efficiency using a 4 fold serial dilution series of muscle cDNA. The derived slope of each primer pair was used to calculate the efficiency by applying the formula, […]. Reactions consisted with diluted cDNA, 5 μl of SYBR Green Mastermix and 8 μM of forward and reverse primers each, and were amplified after an initial hot start. Conditions for cycling and the melt curve were identical to those described for quantitative genotyping. Samples without reverse transcriptase treatment were assayed to ensure that samples were free from DNA contamination. The fold expression (ΔCT) of the gene of interest (goi) relative to the geometric mean of housekeeping genes (Tbp, B2m and Hmbs) were calculated with a formula adapted from (Vandesompele et al., 2002) taking into consideration the individual efficiencies (E) of each primer pair.

CCCCCCC(=O)OCC(COC(=O)CCCCCC)OC(=O)CCCCCC [triheptanoin, 1,3-di(heptanoyloxy)propan-2-yl heptanoate]
time of onset of loss of balance delayed by ([1]; hSOD1^G93A mice, triheptanoin vs control diet, p=0.0016): 1.6 weeks | onset of balance loss on the rota-rod delayed by ([1]; triheptanoin fed vs control fed SOD1^G93A mice, p=0.0016 (FIG. 3F legend)): 13 days | onset of body weight loss delayed by ([2]; hSOD1^G93A mice, triheptanoin feeding vs control, p=0.007): 1.6 weeks | onset of body weight loss delayed by ([2]; triheptanoin fed (n=8) vs control fed (n=5) SOD1^G93A mice, p=0.0076 (FIG. 3H legend)): 11 days | effect on survival ([3]; small study): did not alter survival | number of days taken to reach end-stage ([3]; triheptanoin n=7, mean±SEM, p=0.653 vs control): 174.9 ± 3.5 days | hind limb grip strength (upper limit over time) ([4]; hSOD1^G93A mice on both diets): ≤ 400 mN | onset of hind limb grip strength loss delayed by ([4]; high copy number (19-24) hSOD1^G93A mice, diet with 35% of calories from triheptanoin vs control diet (n=8 vs n=5)): 2.8 weeks | hind limb grip strength at 18 and 19.5 weeks of age vs control diet ([4]; high copy number hSOD1^G93A mice, Bonferroni post-hoc p<0.05): higher hind limb grip strength; also recorded: significantly higher grip strength | area under the curve for grip strength over time, increase relative to control diet ([4]; high copy number hSOD1^G93A mice, triheptanoin diet vs control diet, p=0.024): 38% | difference in mean hind limb grip strength vs control diet [5]: no observable difference | loss of motor neurons between L2 and L5 vs wild type ([6]; triheptanoin diet from 35 days (n=4), control diet 37% loss): 21% | motor neuron numbers compared with wild type mice ([6]; triheptanoin fed, n=4): not significantly different from wild type mice | protection from reduced expression of 2-oxo-glutarate dehydrogenase (Ogdh) mRNA [7]: not | protection from reduced expression of methylmalonyl mutase (Mut) mRNA [7]: not | protection from reduced expression of pyruvate dehydrogenase (Pdha1) mRNA [7]: protected | protection from reduced expression of succinate dehydrogenase (Sdha) mRNA [7]: protected
